Laboratory results as given in US11214803B2, “Modulators of YAP1 expression” (Ionis Pharmaceuticals, Inc., priority 2019, dated 2022).
Strand notation (5' to 3'): a small letter for the sugar, then the base; units joined by * are phosphorothioate-linked, units joined directly phosphodiester-linked; [ ] holds rarer units or linkages, { } end groups; capitals alone tell only the bases. e = 2'-O-(2-methoxyethyl) (MOE); k = constrained ethyl (cEt); [5mC] = 5-methylcytosine; d = 2'-deoxy (DNA); m = 2'-O-methyl

System: Yap1 mRNA
Test: Dose-dependent inhibition of human Yap1 in SNU-449 cells (Example 9, RTS36584)
Format: cell-based
Conditions: free uptake; for % UTC (Yap1 mRNA): approximately 48 hours; for IC50: linear regression on a log/linear plot
Method in brief: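 SNU-449 cells (10,000/well) took up modified oligonucleotides by free uptake at a range of doses for about 48 h. Yap1 mRNA was quantified with primer-probe set RTS36584, normalised to RIBOGREEN total RNA and expressed as % untreated control; IC50 from linear regression on log/linear plot.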

Row | Substance | % UTC (Yap1 mRNA) (31.3 nM) | % UTC (Yap1 mRNA) (125.0 nM) | % UTC (Yap1 mRNA) (500.0 nM) | % UTC (Yap1 mRNA) (2000.00 nM) | IC50
1 | 1198297 (kA*kT*kT*dA*dG*dA*dG*dT*dA*dT*dG*dT*kG*eG*k[5mC]*eA) [compound 1198297] | 67 % UTC | 42 % UTC | 16 % UTC | 7 % UTC | 100 nM
2 | 1198905 (kA*kT*dA*dT*dT*dA*dG*dA*dG*dT*dA*kT*dG*kT*dG*kG; antisense) [compound 1198905] | 75 % UTC | 43 % UTC | 21 % UTC | 6 % UTC | 100 nM
3 | 1197179 (kT*kG*kG*dA*dA*dA*dT*dT*dG*dT*d[5mC]*dT*d[5mC]*kA*kT*kG; antisense) [compound 1197179] | 58 % UTC | 38 % UTC | 17 % UTC | 7 % UTC | 100 nM
4 | 1197309 (kG*kT*kA*dA*mU*dA*dT*dT*dG*d[5mC]*dA*dA*dT*k[5mC]*kT*kG; antisense) [compound 1197309] | 91 % UTC | 63 % UTC | 30 % UTC | 9 % UTC | 200 nM
5 | 1198203 (kG*kG*dA*dA*dA*dT*dT*dG*dT*d[5mC]*dT*e[5mC]*eA*eT*kG*k[5mC]) [compound 1198203] | 71 % UTC | 51 % UTC | 25 % UTC | 11 % UTC | 100 nM
6 | 1198457 (kA*kT*dT*dG*dT*d[5mC]*dT*d[5mC]*dA*dT*dG*e[5mC]*k[5mC]*eT*kT*eA; antisense) [compound 1198457] | 82 % UTC | 56 % UTC | 31 % UTC | 12 % UTC | 200 nM
7 | 1198288 (kG*kA*kA*dA*dT*dT*dG*dT*d[5mC]*dT*d[5mC]*dA*kT*eG*k[5mC]*e[5mC]; antisense) [compound 1198288] | 77 % UTC | 43 % UTC | 17 % UTC | 7 % UTC | 100 nM
8 | 1200862 (kT*kT*kT*dA*dA*mA*dG*dT*dG*dT*dA*dT*dG*kT*k[5mC]*kA; antisense) [compound 1200862] | 88 % UTC | 64 % UTC | 35 % UTC | 13 % UTC | 200 nM
9 | 1198624 (kA*k[5mC]*kT*dA*dA*dG*dT*dA*dA*dG*dG*dT*kT*kT*k[5mC]*e[5mC]; antisense) [compound 1198624] | 62 % UTC | 37 % UTC | 21 % UTC | 9 % UTC | 100 nM
10 | 1198958 (kT*kG*dT*dA*dT*dG*dT*d[5mC]*dA*dG*dA*kA*dG*kA*dG*kT; antisense) [compound 1198958] | 68 % UTC | 39 % UTC | 16 % UTC | 5 % UTC | 100 nM
11 | 1198959 (kA*kG*dT*dG*dT*dA*dT*dG*dT*d[5mC]*dA*kG*dA*kA*dG*kA; antisense) [compound 1198959] | 62 % UTC | 28 % UTC | 8 % UTC | 2 % UTC | 40 nM
12 | 1198526 (kA*kA*dG*dT*dG*dT*dA*dT*dG*dT*d[5mC]*eA*kG*eA*kA*eG; antisense) [compound 1198526] | 61 % UTC | 30 % UTC | 8 % UTC | 2 % UTC | 40 nM
13 | 1198904 (kT*kA*dT*dT*dA*dG*dA*dG*dT*dA*dT*kG*dT*kG*dG*k[5mC]; antisense) [compound 1198904] | 78 % UTC | 36 % UTC | 23 % UTC | 10 % UTC | 100 nM
14 | 1198546 (kG*kA*kA*dA*dT*dT*dG*dT*d[5mC]*dT*d[5mC]*dA*kT*kG*k[5mC]*e[5mC]) [compound 1198546] | 70 % UTC | 42 % UTC | 18 % UTC | 6 % UTC | 100 nM
15 | 1198358 (kT*kT*kT*dA*dA*dA*dG*dT*dG*dT*dA*dT*kG*eT*k[5mC]*eA; antisense) [compound 1198358] | 68 % UTC | 39 % UTC | 20 % UTC | 8 % UTC | 100 nM
16 | 1198596 (k[5mC]*kT*k[5mC]*dT*dT*dA*dT*dA*dT*dG*dG*dT*kT*kT*kT*eG; antisense) [compound 1198596] | 73 % UTC | 40 % UTC | 14 % UTC | 4 % UTC | 100 nM
